# Test results reported in patent US20250092065A1, “2-(INDAZOL-5-YL)-6-(PIPERIDIN-4-YL)-1,7-NAPHTHYRIDINE DERIVATIVES AND RELATED COMPOUNDS AS MODULATORS FOR SPLICING NUCLEIC ACIDS AND FOR THE TREATMENT OF PROLIFERATIVE DISEASES” (REMIX THERAPEUTICS INC., priority 2022, published 2025).
# Read-outs that look alike come from different tables or passages of the source.
# Legend:
# [1] = tested on: K562 cells; experiment: Cell Titer Glo 2.0 cell viability (toxicity) assay, K562; settings: 500 cells/well, 72 hours
# Method: Compounds described herein were screened for toxicity in K562 (human chronic myelogenous leukemia) and SH-SY5Y (human neuroblastoma) cells using a Cell Titer Glo 2.0 assay.
# Cells were plated at 500 cells/well (K562 cells) in 45 μL of IMDM supplemented with 10% FBS in a 384-well opaque plate. Wells containing only medium were used as a blank control. Test compounds (e.g., compounds of Formula (I) or (II)) were first serially diluted in DMSO then diluted 1:100 with EIDM+10% FBS. The final concentration of DMSO was 0.1% in each well. The cells were incubated for 72 hours at 37° C. and 5% CO2 before assaying with Cell Titer Glo 2.0 reagent.
# [2] = tested on: MYB; experiment: HiBiT protein abundance assay, MYB (K562 HiBiT knock-in); assay type: cell-based, human; settings: HiBiT knock-in K562 cells, 24 hours, top dose 10 μM
# Method: (§1) Compounds described herein were used to screen for effects on quantitative protein abundance using a HiBit assay system (Promega). Quantitative protein abundance was determined by measuring the protein levels of HiBit-tagged protein targets expressed in cell culture via luminescence using the Nano-Glo HiBiT Lytic Detection System, which uses a split complementation assay format to reconstitute NanoBiT enzyme to generate a luminescent signal. A protein abundance assay was developed such that endogenous protein targets could be modified with the HiBiT peptide tag and their abundance could be assessed after compound treatment. Briefly, K562 cell lines containing a HiBiT-modification were treated with various compounds described herein (e.g., compounds of Formulas (I), or (II)). After treatment for 24 hours, the protein abundance of a specific target was determined by measuring luminescence.
# (§2) Cells were maintained in IMIDM with 10% FBS. Before the assay, cells were diluted with […] growth media (IMIDM+[…] media) and were seeded in a 384-well plate at a density of 10000 cells/well (for each cell line listed in Table 6). Each compound was prepared as a 10-point 3-fold serial dilution in DMSO with the top dose at a final concentration of 10 μM in the well. Unmodified K562 cells were added at the previously specified density with DMSO to serve as an assay baseline and positive control (PC) and DMSO only with the respective modified cell lines was added to the negative control (NC) columns. Final DMSO concentration was kept at or below 0.25%. Treated cell plates were placed in an incubator at 37° C. with […] for 24 hours. After 24 hours, 25 μL of Complete HiBit Lytic reagent was added to each well at room temperature (e.g. one plate requiring 10 mL Lytic Buffer, 100 μL LgBiT Protein, 200 μL Lytic Substrate), shaken for 5 minutes at 600 RPM, then left to sit for 10 minutes for signal to stabilize before reading on a Spark Cyto plate reader (Tecan) with a 500 ms measurement time.
# (§3) To determine compound effects on protein abundance of each target in Table 6, the percent response for each respective cell line was calculated at each compound concentration as follows:
# (§4) % response=100*(S−PC)(NC−PC)
# (§5) For the normalized response at each concentration, a four-parameter logistical regression was fit to the data and the response was interpolated at the […] to determine a concentration for protein abundance at 50% (IC50) the untreated control.
# [3] = tested on: HTT; experiment: HiBiT protein abundance assay, HTT (K562 HiBiT knock-in); assay type: cell-based, human; settings: HiBiT knock-in K562 cells, 24 hours, top dose 10 μM
# Method: as §1, §2, §3, §4, §5
# [4] = tested on: HTT mRNA; experiment: RT-qPCR splicing assay, HTT mRNA canonical (CJ) and alternative (AJ) junction; assay type: cell-based, human; settings: Homo sapiens; for AC50: HTT alternative junction mRNA, read-out: HTT AJ (increase in AJ mRNA, AC50)
# Method: (§6) Compounds described herein were used to modulate RNA transcript abundance in cells. The expression of a target mRNA was measured by detecting the formation of an exon-exon junction in the canonical transcript (CJ). A compound mediated exon-inclusion event was detected by observing an increase in formation of a new junction with an alternative exon (AJ). Real-time qPCR assays were used to detect these splicing switches and interrogate the potency of various compounds towards different target genes. A high-throughput real time quantitative PCR (RT-qPCR) assay was developed to measure these two isoforms of the mRNA (CJ and AJ) for exemplary genes, such as HTT, SMN2, and MYB, together with a control housekeeping gene, GAPDH or GUSB or PPIA, used for normalization. Briefly, the A673 or K562 cell line was treated with various compounds described herein (e.g., compounds of Formula (I)). After treatment, the levels of the HTT, MYB, or SMN2 mRNA targets were determined from each sample of cell lysate by cDNA synthesis followed by qPCR.
# (§7) The A673 cell line was cultured in DMEM with 10% FBS. Cells were diluted with full growth media and plated in a 96-well plate (15,000 cells in 100 ul media per well). The plate was incubated at 37° C. with 5% CO2 for 24 hours to allow cells to adhere. An 11-point 3-fold serial dilution of the compounds was made in DMSO then diluted in media in an intermediate plate. Compounds were transferred from the intermediate plate to the cell plate with the top dose at a final concentration of 10 uM in the well. Final DMSO concentration was kept at or below 0.25%. The cell plate was returned to the incubator at 37° C. with 5% CO2 for an additional 24 hours.
# (§8) The K562 cell line was cultured in IMDM with 10% FBS. For K562, cells were diluted with full growth media and plated in either a 96-well plate (50,000 cells in 50 uL media per well) or a 384-well plate (8,000-40,000 cells in 45 uL media per well). An 11-point 3-fold serial dilution of the compounds were made in DMSO then diluted in media in an intermediate plate. Compound was transferred from the intermediate plate to the cell plate with the top dose at a final concentration of 10 uM in the well. Final DMSO concentration was kept at or below 0.25%. Final volume was 100 uL for 96-well plate and 50 uL for 384-well plate. The cell plate was then placed in an incubator at 37° C. with 5% CO2 for 24 hours.
# (§9) The cells were then gently washed with 50 uL-100 uL cold PBS before proceeding to addition of lysis buffer. 30 uL-50 μL of room temperature lysis buffer with DNAse I (and optionally RNAsin) was added to each well. Cells were shaken/mixed thoroughly at room temperature for 5-10 minutes for lysis to take place and then 3 uL-5 μL of room temperature stop solution was added and wells were shaken/mixed again. After 2-5 minutes, the cell lysate plate was transferred to ice for RT-qPCR reaction setup. The lysates could also be frozen at −80° C. for later use.
# (§10) In some cases, a direct lysis buffer was used. An appropriate volume of 3× lysis buffer (10 mM Tris, 150 mM NaCl, 1.5%-2.5% Igepal and 0.1-1 U/uL RNAsin, pH 7.4) was directly added to either K562 or A673 cells in media and mixed by pipetting 3 times. The plates were then incubated at room temperature with shaking/rocking for 20-50 minutes to allow for lysis to take place. After this time, the cell lysate plate was transferred to ice to set up for the RT-qPCR reactions. The lysates could also be frozen at −80° C. for later use.
# (§11) To set up 10 uL RT-qPCR reactions, cell lysates were transferred to 384-well qPCR plates containing the master mix according to the table below. The plates were sealed, gently vortexed, and spun down before the run. The volumes were adjusted accordingly in some instances where the reaction was carried in 20 μL. The table below summarizes the components of the RT-qPCR reactions:
# (§12) The RT-qPCR reaction was performed using a QuantStudio (ThermoFisher) under the following fast cycling conditions. […]
# [5] = tested on: Target C; experiment: HiBiT protein abundance assay, Target C (K562 HiBiT knock-in); assay type: cell-based, human; settings: HiBiT knock-in K562 cells, 24 hours, top dose 10 μM
# Method: as §2, §3, §4, §5
# [6] = tested on: MYB mRNA; experiment: RT-qPCR splicing assay, MYB mRNA canonical (CJ) and alternative (AJ) junction; assay type: cell-based, human; settings: Homo sapiens; for AC50: MYB alternative junction mRNA, read-out: MYB AJ (increase in AJ mRNA, AC50)
# Method: as §6, §7, §8, §9, §10, §11, §12
# [7] = tested on: SMN2 mRNA; experiment: RT-qPCR splicing assay, SMN2 mRNA; assay type: cell-based, human; settings: Homo sapiens, canonical junction qPCR panel, Table 4; read-out: SMN2 IC50 (decrease in CJ mRNA levels)
# Method: as §6, §7, §8, §9, §10, §11, §12
# [8] = HTT canonical junction mRNA, RT-qPCR, read-out: HTT CJ (decrease in CJ mRNA levels, IC50)
# [9] = canonical junction qPCR panel, Table 4, read-out: HTT IC50 (decrease in CJ mRNA levels)
# [10] = MYB canonical junction mRNA, RT-qPCR, read-out: MYB CJ (decrease in CJ mRNA levels, IC50)
# [11] = canonical junction qPCR panel, Table 4, read-out: MYB IC50 (decrease in CJ mRNA levels)
Compound,"Effect of Exemplary Compounds on Cell Viability, K562 [1]",IC50 [2],IC50 [3],AC50 ([4]; RT-qPCR),"IC50 [4, 8]","IC50 [4, 9]",IC50 [5],AC50 ([6]; RT-qPCR),"IC50 [6, 10]","IC50 [6, 11]",IC50 [7]
"Cc1nc2c(F)c(O)c(-c3ccc4nc(N5CC[C@@H](NC(C)(C)C)C5)ccc4n3)cc2o1 (single isomer, unassigned) [Compound 256]",A (A represents <100 nM),< 100 nM,< 100 nM,< 100 nM,< 100 nM,< 100 nM,< 100 nM,< 100 nM,< 100 nM,< 100 nM,< 100 nM
Cn1cc2cc(-c3ccc4nc(C5CCNCC5)ccc4n3)c(O)cc2n1 [Compound 100],B (B represents 100-1000 nM),< 100 nM,< 100 nM,100 to 1000 nM,< 100 nM,< 100 nM,< 100 nM,1000 to 10000 nM,< 100 nM,< 100 nM,< 100 nM
Cc1c(O)c(-c2ccc3nc(C4CCNCC4)ccc3n2)cc2cn(C)nc12 [Compound 101],A (A represents <100 nM),< 100 nM,< 100 nM,< 100 nM,< 100 nM,< 100 nM,< 100 nM,< 100 nM,< 100 nM,< 100 nM,< 100 nM
Cn1cc2cc(-c3ccc4nc(C5CCNCC5)ccc4n3)c(O)c(F)c2n1 [Compound 102],A (A represents <100 nM),< 100 nM,< 100 nM,< 100 nM,< 100 nM,< 100 nM,< 100 nM,< 100 nM,< 100 nM,< 100 nM,< 100 nM
Cn1cc2c(O)c(-c3cc4ccc(C5CCNCC5)nc4cn3)ccc2n1 [Compound 106],B (B represents 100-1000 nM),1000 to 10000 nM,1000 to 10000 nM,1000 to 10000 nM,1000 to 10000 nM,1000 to 10000 nM,1000 to 10000 nM,100 to 1000 nM,1000 to 10000 nM,1000 to 10000 nM,100 to 1000 nM
Cn1cc2cc(-c3ncc4nc(C5CCNCC5)ccc4n3)c(O)cc2n1 [Compound 107],B (B represents 100-1000 nM),100 to 1000 nM,100 to 1000 nM,100 to 1000 nM,100 to 1000 nM,100 to 1000 nM,100 to 1000 nM,100 to 1000 nM,100 to 1000 nM,100 to 1000 nM,< 100 nM
CN1CCC(N(C)c2ccc3nc(-c4cc5cn(C)nc5cc4O)ccc3n2)CC1 [Compound 126],–,100 to 1000 nM,100 to 1000 nM,100 to 1000 nM,100 to 1000 nM,100 to 1000 nM,100 to 1000 nM,100 to 1000 nM,100 to 1000 nM,100 to 1000 nM,< 100 nM
Cn1cc2cc(-c3ccc4nc(N5C[C@H]6CC[C@@H](C5)N6)ccc4n3)c(O)cc2n1 [Compound 135],–,100 to 1000 nM,1000 to 10000 nM,1000 to 10000 nM,1000 to 10000 nM,1000 to 10000 nM,1000 to 10000 nM,100 to 1000 nM,100 to 1000 nM,100 to 1000 nM,< 100 nM
Cc1cn2cc(-c3ccc4nc(C5CCNCC5)ccc4n3)c(O)c(C)c2n1 [Compound 151],–,100 to 1000 nM,100 to 1000 nM,100 to 1000 nM,100 to 1000 nM,100 to 1000 nM,100 to 1000 nM,100 to 1000 nM,100 to 1000 nM,100 to 1000 nM,100 to 1000 nM
